Source: patent US9433622B2, “Pyrimidine compounds useful in the treatment of diseases mediated by IKKE and/or TBK1 mechanisms” (DOMAINEX LIMITED, priority 2013, dated 2016)
Read-outs that look alike come from different tables or passages of the source.

How the values were obtained:
IKKε = IKKε (Homo sapiens (Human), UniProt Q14164); test: Lanthascreen TR-FRET kinase inhibition assay, IKKε; assay type: biochemical
Outline: (§1)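 TR-FRET: terbium phosphospecific antibody detects phosphorylation of 400 nM fluorescein-IkBα peptide, 20 μM ATP, 20 °C, HEPES pH 7.5 with 3% DMSO. IKKε at 2 nM, 1 h reaction; TBK1 at 8 nM, 2.5 h reaction; started by kinase addition.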

TBK1 = TBK1 (Homo sapiens (Human), UniProt Q9UHD2); test: Lanthascreen TR-FRET kinase inhibition assay, TBK1; assay type: biochemical; settings: 20 μM ATP (apparent Km), 8 nM kinase, 2.5 h
Outline: as §1

[1] = 20 μM ATP (apparent Km), 2 nM kinase, 1 h

IKKε, sequence (Q14164 whole entry): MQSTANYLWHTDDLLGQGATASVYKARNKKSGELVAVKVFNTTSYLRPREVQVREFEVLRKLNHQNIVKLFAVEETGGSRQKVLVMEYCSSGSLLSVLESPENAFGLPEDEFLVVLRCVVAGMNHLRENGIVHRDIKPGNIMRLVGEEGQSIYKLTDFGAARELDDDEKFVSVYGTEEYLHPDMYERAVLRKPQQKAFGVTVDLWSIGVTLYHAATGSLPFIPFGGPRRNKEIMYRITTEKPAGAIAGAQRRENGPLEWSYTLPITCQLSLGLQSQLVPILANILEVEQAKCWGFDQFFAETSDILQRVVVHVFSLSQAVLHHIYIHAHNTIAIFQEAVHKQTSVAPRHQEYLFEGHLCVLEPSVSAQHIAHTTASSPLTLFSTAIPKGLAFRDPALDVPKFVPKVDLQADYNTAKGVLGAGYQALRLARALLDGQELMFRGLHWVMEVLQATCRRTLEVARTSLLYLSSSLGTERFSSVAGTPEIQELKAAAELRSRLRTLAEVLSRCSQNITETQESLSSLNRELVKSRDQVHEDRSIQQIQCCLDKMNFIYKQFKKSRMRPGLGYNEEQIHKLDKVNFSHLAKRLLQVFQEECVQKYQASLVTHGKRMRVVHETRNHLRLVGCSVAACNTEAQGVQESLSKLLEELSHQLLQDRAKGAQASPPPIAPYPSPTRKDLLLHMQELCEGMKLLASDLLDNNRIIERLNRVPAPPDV
TBK1, sequence (Q9UHD2 whole entry): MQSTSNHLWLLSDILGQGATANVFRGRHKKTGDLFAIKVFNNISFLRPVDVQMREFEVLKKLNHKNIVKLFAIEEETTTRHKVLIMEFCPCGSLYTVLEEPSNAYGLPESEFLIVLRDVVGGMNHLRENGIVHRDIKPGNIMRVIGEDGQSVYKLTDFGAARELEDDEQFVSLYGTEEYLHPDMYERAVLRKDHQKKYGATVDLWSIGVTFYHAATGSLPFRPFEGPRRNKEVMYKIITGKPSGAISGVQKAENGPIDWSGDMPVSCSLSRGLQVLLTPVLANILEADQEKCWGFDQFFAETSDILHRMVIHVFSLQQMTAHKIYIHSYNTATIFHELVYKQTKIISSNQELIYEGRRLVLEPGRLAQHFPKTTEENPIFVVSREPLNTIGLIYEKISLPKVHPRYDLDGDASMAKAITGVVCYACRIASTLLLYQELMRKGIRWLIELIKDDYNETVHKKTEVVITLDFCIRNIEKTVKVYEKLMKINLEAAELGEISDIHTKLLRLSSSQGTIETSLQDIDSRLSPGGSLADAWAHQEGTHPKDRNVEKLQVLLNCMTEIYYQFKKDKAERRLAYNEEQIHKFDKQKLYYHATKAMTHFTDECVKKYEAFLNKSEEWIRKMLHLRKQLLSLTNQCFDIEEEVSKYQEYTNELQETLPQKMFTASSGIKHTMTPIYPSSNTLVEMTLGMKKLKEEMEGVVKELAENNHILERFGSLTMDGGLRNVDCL

Structure (SMILES) | IC50 (IKKε; [1]) | IC50 (TBK1) | IC50 (IKKε)
N#Cc1cc(-c2ccnc(Nc3cnn(CCN4CCOCC4)c3)n2)cnc1N1CC[C@H](F)C1 [DMX-53, 2-((S)-3-Fluoro-pyrrolidin-1-yl)-5-{2-[1-(2-morpholin-4-yl-ethyl)-1H-pyrazol-4-ylamino]-pyrimidin-4-yl}-nicotinonitrile] | < 0.1 µM | < 0.03 µM | 
COCCN(C)c1ncc(-c2ccnc(Nc3ccc(CN4CCOCC4)nc3)n2)cc1C#N [DMX-140, 2-[(2-Methoxy-ethyl]-methyl-amino]-5-[2-(6-morpholin-4-ylmethyl-pyridin-3-ylamino)-pyrimidin-4-yl]-nicotinonitrile] | < 1 µM | < 1 µM | 
N#Cc1cc(-c2ccnc(Nc3ccc(CN4CCOCC4)nc3)n2)cnc1NC1CCCC1 [DMX-139, 2-Cyclopentylamino-5-[2-(6-morpholin-4-ylmethyl-pyridin-3-ylamino)-pyrimidin-4-yl]-nicotinonitrile] | < 0.1 µM | < 0.1 µM | 
CN1CCC(NC(=O)c2cccc(Nc3nccc(-c4cnc(N5CC[C@H](F)C5)c(C#N)c4)n3)c2)CC1 [DMX-1, 3-{4-[5-Cyano-6-((S)-3-fluoro-pyrrolidin-1-yl)-pyridin-3-yl]-pyrimidin-2-ylamino}-N-(1-methyl-piperidin-4-yl)-benzamide] | < 0.1 µM | < 0.03 µM | 
N#Cc1cc(-c2ccnc(Nc3ccc(NC(=O)CN4CC[C@H](O)C4)nc3)n2)cnc1N1CC[C@H](F)C1 [DMX-35, N-(5-{4-[5-Cyano-6-((S)-3-fluoro-pyrrolidin-1-yl)-pyridin-3-yl]-pyrimidin-2-ylamino}-pyridin-2-yl)-2-((S)-3-hydroxy-pyrrolidin-1-yl)-acetamide] |  | < 0.1 µM | < 0.03 µM
N#Cc1nc(-c2nc(Nc3ccc(N4CCOCC4)cc3)ncc2F)ccc1N1CC[C@H](F)C1 [DMX-153, 6-[5-Fluoro-2-(4-morpholin-4-yl-phenylamino)-pyrimidin-4-yl]-3-((S)-3-fluoro-pyrrolidin-1-yl)-pyridine-2-carbonitrile] | < 0.015 µM | < 0.015 µM | 
CC1(O)CN(Cc2ccc(Nc3nccc(-c4cnc(N5CC[C@H](F)C5)c(C#N)c4)n3)cn2)C1 [DMX-110, 2-((S)-3-Fluoro-pyrrolidin-1-yl)-5-{2-[6-(3-hydroxy-3-methyl-azetidin-1-ylmethyl)-pyridin-3-ylamino]-pyrimidin-4-yl}-nicotinonitrile] | < 0.03 µM | < 0.1 µM | 
N#Cc1cc(-c2nc(Nc3ccnc(NC(=O)CN4CCOCC4)c3)ncc2F)cnc1N1CCCOCC1 [DMX-94, N-{4-[4-(5-Cyano-6-[1,4]oxazepan-4-yl-pyridin-3-yl)-5-fluoro-pyrimidin-2-ylamino]-pyridin-2-yl}-2-morpholin-4-yl-acetamide] | < 1 µM | < 0.1 µM | 
N#Cc1cc(-c2ccnc(Nc3ccc(C(N)=O)cc3)n2)cnc1N1CCCC1 [DMX-37, 4-[4-(5-Cyano-6-pyrrolidin-1-yl-pyridin-3-yl)-pyrimidin-2-ylamino]-benzamide] | < 0.015 µM | < 0.015 µM | 
C[C@H]1COCCN1Cc1ccc(Nc2nccc(-c3ccc(N4CC[C@H](F)C4)c(C#N)n3)n2)cn1 [DMX-149, 3-((S)-3-Fluoro-pyrrolidin-1-yl)-6-{2-[6-((S)-3-methyl-morpholin-4-ylmethyl)-pyridin-3-ylamino]-pyrimidin-4-yl}-pyridine-2-carbonitrile] |  | < 0.015 µM | < 0.015 µM
N#Cc1cc(-c2nc(Nc3ccc(CN4CCOCC4)nc3)ncc2F)cnc1NC1CC1 [DMX-123, 2-Cyclopropylamino-5-[5-fluoro-2-(6-morpholin-4-ylmethyl-pyridin-3-ylamino)-pyrimidin-4-yl]-nicotinonitrile] | < 1 µM | < 0.1 µM | 
N#Cc1cc(-c2ccnc(Nc3ccc(CN4CCOCC4)nc3)n2)cnc1N1CCC(CC(N)=O)C1 (stereo not drawn) [DMX-158, 2-(1-{3-Cyano-5-[2-(6-morpholin-4-ylmethyl-pyridin-3-ylamino)-pyrimidin-4-yl]-pyridin-2-yl}-pyrrolidin-3-yl)-acetamide] | < 0.1 µM | < 0.1 µM | 
